Assay results published in US20230033224A1, “CICLESONIDE FOR AMELIORATING QUALITY OF LIFE (QOL) IN EQUINES” (Boehringer Ingelheim Vetmedica GmbH, priority 2020, published 2023).

System: client-owned horses
Test: Owner assessment of change in quality of life (QOL) in a randomized, double-blinded, placebo-controlled clinical study
Format: in vivo, horse
Description: The amelioration of the QOL in equines can be measured by an assessment, which can be performed for example by the owner or the veterinarian or by an animal care taker or by any other person, preferably by the owner. The owners of the horses are asked to assess the quality of life of their horses over a certain period of time, e.g. several days, such as 10, 14 or 21 days, compared to a reference time point, e.g. day 0. For assessment of QOL the owner is asked to consider certain QOL parameters such as attitude, energy level, human interactions, general behavior using a rating scheme. This assessment preferably relates to a certain period of time such as for example the last 24 hours in comparison to a previous point in time for example day 0. One possible rating scheme is to ask whether QOL has improved, stayed the same or worsened compared to day 0.
The study is conducted as a multicenter prospective, randomized, double-blinded, placebo-controlled clinical study with parallel group design according to Good Clinical Practice (GCP) guidelines with client-owned horses.
Horses are examined before (Day 0) and at the end of treatment with the study drug (Day 10±1) by the study investigators. Physical examination, efficacy and QOL assessment, as well as blood sample collection is performed during the visits. The owners of included horses are also contacted by telephone on Day 5. […]

## CC(C)C(=O)OCC(=O)[C@@]12O[C@H](C3CCCCC3)OC1CC1C3CCC4=CC(=O)C=C[C@]4(C)C3[C@@H](O)C[C@@]12C (stereo partly drawn) [ciclosenide, (1 ip,16a)-16,17-[[(R)-Cyclohexylmethylene]bis(oxy)]-11-hydroxy-21-(2-methyl-1-oxopropoxy)pregna-1,4-diene-3,20-dione]
After 10(±1) days of treatment, 8 actuations twice daily for 5 days, then 12 actuations once daily for 5 days
  percentage of owners acknowledging an improvement in their horse's quality of life compared to Day 0: 69.33%
After five days of treatment, inhaled via EquiHaler, 8 actuations (343 μg each) twice daily
  percentage of owners reporting that the quality of life of their horse improved compared to Day 0: 60.19%
